How the values were obtained:
[1] = system: hippocampal CA1/CA3 nerve cells of KA-treated rats; test: NeuN staining of hippocampal CA1/CA3 nerve cells in KA-treated rats; type: in vivo; settings: Cynarin 10 mg/kg p.o. once daily for 7 days before KA 15 mg/kg i.p.; NeuN staining 72 h after KA
Method: In this example, rats were divided into four groups: a control group, a KA-only (15 mg/kg) treatment group, a Cynarin (CYN) (10 mg/kg) plus KA (15 mg/kg) treatment group, and a triple treatment group consisting of Cynarin (CYN) (5 mg/kg), Carbamazepine (CBZ) (50 mg/kg), and KA (15 mg/kg). During the experiment, except for the control group, rats in each group were administered Cynarin orally once daily for seven days. Then, on the eighth day, all experimental groups, except the control group, were further treated by intraperitoneal injection of KA (15 mg/kg).
FIGS. 3A and 3B show the effect of Cynarin (CYN) pretreatment on kainic acid (KA)-induced nerve cell death in the hippocampus of rats. (3A) Representative images of Neuronal nuclei (NeuN) staining at 72 h after KA i.p. injection. (3B) Semiquantitative analysis of NeuN-positive cells in the CA1 and CA3 regions. Data are mean±SEM (n=5 per group). ***, p<0.001 vs. control group. #, p<0.001 vs. KA group.

[2] = system: KA-induced epilepsy model in rats; test: kainic acid (KA)-induced seizure behavior in rats, Racine scale scoring (seizure score and latency); type: in vivo, Sprague-Dawley rats
Description: Experimental animals are as follows. Male Sprague-Dawley rats (weight 200-250 g) purchased from BioLASCO in Taipei were housed in the Animal Center of Fu Jen Catholic University and maintained in a 12-h light/dark cycle with food and water available ad libitum. Rats were allowed to acclimate to laboratory conditions for at least 3 days before the start of the experiment.
The experimental design of the present invention is as follows. Cynarin pretreatment reduces epileptic behavior in animals induced by kainic acid (KA). […] Behavioral scoring was based on the Racine scale (1972), see FIG. 1.
Experimental grouping is as follows. […]
The experimental protocol for Racine scale behavioral scoring is as follows. The rats' epileptic seizure activity was continuously monitored for 3 hours, and epileptic behavior was scored according to the 1972 Racine scale. […]
Statistical analysis is as follows. […] Data are expressed as mean±standard error (SEM). Statistical significance was determined by one-way analysis of variation (ANOVA), combined with Bonferroni's post hoc test, and a p-value less than 0.05 was used as the criterion for significant differences.
The rats were pretreated either with normal saline (control), or CYN (0.5-25 mg/kg/day, p.o.), or CBZ (50 or 100 mg/kg/day, p.o.) or CYN 5 mg/kg/day+CBZ 50 mg/kg/day (p.o.) for 7 days before KA injection (15 mg/kg, i.p.). […] Data are expressed as mean±SEM. […]

Q: With `O=C(/C=C/c1ccc(O)c(O)c1)O[C@@H]1C[C@@](OC(=O)/C=C/c2ccc(O)c(O)c2)(C(=O)O)C[C@@H](O)[C@@H]1O` [CYN, Cynarin] as the molecule, how does the “KA-induced reduction of the number of hippocampal CA1/CA3 nerve cells (NeuN-positive cells)” value [1] read?
A: can also be reduced

Q: What about the “effect on KA-induced epilepsy (seizure score and latency)” value ([2]; CYN 0.5 mg/kg/day p.o. for 7 days before KA 15 mg/kg i.p., rats observed 3 h) of the same molecule?
A: did not affect the epilepsy induced by KA

Q: What about the “inhibitory effect on epileptic seizure behavior” value ([2]; CYN 10 mg/kg/day p.o. for 7 days before KA 15 mg/kg i.p., compared with CYN 5 and 25 mg/kg, equivalent to CBZ 100 mg/kg) of the same molecule?
A: strongest inhibitory effect on epileptic seizure behavior in animals

Reference: US20250302791A1, “METHOD FOR TREATING AND/OR PREVENTING EPILEPSY AND REDUCING SIDE EFFECT OF ANTI-EPILEPTIC DRUG BY USING CYNARIN” (FU JEN CATHOLIC UNIVERSITY, priority 2024, published 2025)
